One data set has as its system Vero cells. The experiment in a line: Cellular uptake, distribution and metabolism of radiolabeled n-docosanol. It counts as in vitro ADME, African Green monkey. How it is done:
FIG. 10 depicts data showing that radioactive metabolites of n-[^14C]docosanol display the properties of phosphatidylcholine and phosphatidylethanolamine. A portion (0.5 ml) of the methanol eluate of the silica lipid fractionation was evaporated under nitrogen, resuspended in 20 μl chloroform:methanol (3:2; v:v) and spotted on a silica thin layer chromatography (TLC) sheet. After development with chloroform:methanol:acetic acid:water (60:50:1:4; v:v:v:v), the positions of standards were determined by staining with iodine vapors and the cpm per fraction determined by scintillation spectrometry after cutting the plastic-backed sheet into 5 mm strips.
FIG. 11 depicts data showing that n-[^14C]-Docosanol is metabolized more by Vero cells than by MDBK cells. Vero or MDBK cells were plated as described. n-[^14C]-docosanol was added to […] (0.24 mM Tetronic 908) and the cultures were incubated 72 hours at 37° C./CO2. Cells were extracted and analyzed on TLC with hexane:diethyl ether:acetic acid (20:30:1; v:vv) as the developing solvent. With this solvent system the polar phosphatides remain at the origin. The position of migration of n-[^14C]-docosanol is indicated. Duplicate plates were treated with an identical suspension lacking the radioactive label, and the numbers of cells in these duplicate plates were determined by counting cells excluding trypan blue with a hemocytometer.
In order to better define the precise mechanism by which n-docosanol exerts its antiviral activity, the cellular uptake, distribution, and metabolism of n-docosanol from surfactant-stabilized suspensions has been studied. The results of such studies have provided some interesting insight into the metabolic basis of the compound's antiviral action. It has been shown that radioactively labeled n-docosanol is progressively incorporated into cultured Vero cells, reaching a peak uptake per cell between 6 and 12 hours after exposure. The process is irreversible, since once the compound is cell-associated it cannot be removed even with extensive washing with cesium bromide, which effectively removes nonspecifically associated cell-bound particles.
Nonmetabolized n-docosanol was previously eluted from the silica with chloroform. As shown, approximately 62% of the counts migrated in the region of phosphatidylcholine and 38% migrated in the region of phosphatidylethanolamine.
Of the counts that are metabolized in two cells lines, the relative amounts in the major classes of phosphatides that are formed, phosphatidylcholine and phosphatidylethanolamine, are not different in the two cell lines.

For the next data set, the system named is HSV. Description: Direct viricidal activity (virus mixed with suspension, infectivity recovered). The method, then:
Extensive studies designed to delineate the mechanism by which n-docosanol exerts its antiviral activity were conducted. The collective implications of the results of the studies are that the compound appears to interfere with one or more of the common pathways of viral entry into the cell and migration to the nucleus of infected target cells.
Instead, the drug apparently modifies the target cell in a manner that inhibits viral replication.

Data set [1] is described as follows: Toxic, mutagenic, teratogenic properties.
Another data set concerns HSV-1. The experiment in a line: HSV-1 plaque assay in Vero cells, time of drug incubation and removal. It counts as cell-based. The conditions noted are these: 9 mM. How it is done: (A) Vero cells were plated and incubated with 9 mM n-docosanol, the corresponding control vehicle or no addition for 0, 3, 6, or 24 h prior to the addition of HSV-1. The viral plaque assay was continued and the number of p.f.u. determined. The data are expressed as % inhibition compared to wells receiving no treatment. (B) Vero cells were plated, n-docosanol or the corresponding control vehicle was added and cells were incubated at 37° C. in 10% humidified CO2. After 21, 24, 25, 26, and 27 h (6, 3, 2, 1, and 0 h before the addition of HSV-1), media containing drug was removed and the cells were washed with media. After a total of 27 h, HSV-1 was added to all wells. Two hours later virus-containing media was removed and replaced with fresh media lacking virus or drugs. The cultures were incubated and processed for determination of the number of HSV-induced plaques as in (A). […]
The cultures were incubated for an additional 42-44 h, washed once with fresh medium, stained and fixed (the staining/fixative consists of 1.25 mg/ml of carbol-fuchsin plus 2.5 mg/ml of methylene blue in methanol) and then scored for HSV-induced plaques using a dissecting microscope (10× magnification). […]

Another data set in a line: Water solubility. Format: physicochemical.
The subject of a further data set is HSV-1 or HSV-2. Description: Inhibition of HSV production and plaque formation in Vero cells. Format: cell-based. How it is done:
Cultured cells were placed in 35-mm wells (2 ml; 3×10^5 cells/ml) in DMEM containing L-glucamine, pennstrep (cDMEM) and supplemented with 5% FCS. n-Docosanol or the corresponding control vehicle (lacking n-docosanol) was added at the outset of the culture. All cultures were then inoculated with 175 p.f.u. of HSV-1 or HSV-2.
The cultures were incubated for an additional 42-44 h, washed once with fresh medium, stained and fixed (the staining/fixative consists of 1.25 mg/ml of carbol-fuchsin plus 2.5 mg/ml of methylene blue in methanol) and then scored for HSV-induced plaques using a dissecting microscope (10× magnification). Thc data are averages of duplicate cultures, which varied by no more than 5-10%.

The mark [2] stands for this setting: saturating concentrations, within 24 hours.

Entries after “also recorded” stand apart in the source; their conditions may differ.

As for `CCCCCCCCCCCCCCCCCCCCCCO` [n-docosanol], in the data set on Vero cells, the “total uptake and relative metabolic conversion, Vero versus MDBK cells” value is given as 3-4 times higher. Further, in the data set with Vero cells (after 12 hours of exposure), the “radioactive compound associated with nuclear fractions” value is listed as “less than 1%” and the “radioactive compound contained in cell membranes” value was determined as 75%. Besides, the “molecules of n-docosanol added to culture that enter the cell” value in the data set with Vero cells (radiolabeled n-docosanol) is recorded as “less than 1 out of 1000”. For the same compound, in the data set with Vero cells (setting [2]), the cell-associated amount is given as ~8×10^9 molecules per cell and the “fraction of total n-docosanol added that becomes cell-associated” value is reported as “less than 1%”. Besides, in the data set with HSV, the direct viricidal activity entry is “no direct viricidal activity; also recorded: does not directly inactivate virus”. Besides, the “toxic, mutagenic, or teratogenic properties” value in data set [1] was “lacks any toxic, mutagenic, or teratogenic properties”. In the data set on HSV-1 (6-h interval between drug removal and HSV-I addition), the “inhibition of plaque formation” value was “no inhibition of HSV-I plaque formation was observed”. Also, in the data set on HSV-1 (Human alphaherpesvirus 1, Vero, added simultaneously with, or 3 h prior to virus addition, read-out: inhibition of plaque formation), the inhibition (in general, the change of the read-out against control, counted positive when it falls) at 9000 µM amounted to 28%. Besides, the water solubility entry in the data set “Water solubility” is “water-insoluble”. In the data set with HSV-1 or HSV-2, the “ID50 for inhibition of HSV production” value turned out to be 4 mM and the “ID50 for inhibition of plaque formation” value is recorded as 9 mM.

The record behind these values is patent publication US20040033982A1, “Viral inhibition by n-docosanol” (priority 2001, published 2004).
